Test results taken from patent publication US20100210537A1, “USE OF A DEFENSIN PEPTIDE AS A THERAPEUTIC AGENT” (priority 2007, published 2010).
Where no end group is shown, it is not given here.

Tests used:
HIV-1IIIB = experiment: HIV-1 antiviral assay in CEM-SS cells (MTS readout); assay type: cell-based
HCMV strain AD169 = experiment: HCMV plaque formation assay in MRC-5 cells; conditions: for inhibition of HCMV plaque formation as compared to the virus control experiment: 10 micrograms per ml, 7-10 days
HUVEC = experiment: Endothelial tube formation assay; assay type: cell-based, human; conditions: 10 micrograms per ml, 20 hours
From the text: Positive control was vehicle only.

Interleukin-4 (IL-4) = experiment: Th1/Th2 cytokine profiling assay: IL-4; assay type: cell-based, Balb/c mice; conditions: 10 micrograms per ml; Ovalbumin-restimulated spleen cells, 72 hours
Description: (§1) On day 50, spleens of the mice were harvested (3 weeks after last boost with Ovalbumin). Cells were cultured (2×10^5/well in triplicate) and incubated with culture medium or test peptides-10 micrograms per ml-for 30 min. Thereafter, additional Ovalbumin was added to the cells at 10 micrograms/ml for in vitro restimulation of the cells. 72 hours later, cell supernatants were harvested and assayed using the Becton Dickinson Mouse Th1/Th2 Cytokine CBA Kit.

Interferon-γ (IFN-γ) = experiment: Th1/Th2 cytokine profiling assay: IFN-gamma; assay type: cell-based, Balb/c mice; conditions: 10 micrograms per ml; Ovalbumin-restimulated spleen cells, 72 hours
Description: as §1

[1] = tested on: hepatitis B virus (HBV) ayw strain; experiment: HBV assay in HepG2-2.2.15 cells (TaqMan PCR of secreted HBV DNA); assay type: cell-based; conditions: 10 micrograms per ml, six days
From the text: HepG2-2.2.15 is a stable cell line containing the hepatitis B virus (HBV) ayw strain genome (ATCC Cat. No. CRL-11997). Antiviral compounds blocking any late step of viral replication such as transcription, translation, pregenome encapsidation, reverse transcription, particle assembly and release can be identified and characterized using this cell line. In this assay, an active compound will reduce the production of secreted HBV from cells, measured by utilizing real time quantitative PCR (TaqMan) assay to directly and accurately measure HBV DNA copies.
HepG2-2.2.15 cells were plated in 96-well microtiter plates. After 16-24 hours the confluent monolayer of HepG2-2.2.15 cells was washed and the medium was replaced with complete medium containing test peptides-10 micrograms per ml-in duplicate. […] Six days following the initial administration of the peptides, the cell culture supernatants was collected, treated with pronase and DNAse and then used in a real-time quantitative TaqMan PCR assay. The PCR-amplified HBV DNA was detected in real-time by monitoring increases in fluorescence signals that result from the exonucleolytic degradation of a quenched fluorescence probe molecule that hybridizes to the mplified HBV DNA. […] Antiviral activity was calculated from the reduction in HBV DNA levels (% virus control). […]

[2] = tested on: Tumor Necrosis Factor-α (TNF-α); experiment: Th1/Th2 cytokine profiling assay: TNF-alpha; assay type: cell-based, Balb/c mice; conditions: 10 micrograms per ml; Ovalbumin-restimulated spleen cells, 72 hours
Description: as §1

Interleukin-5 (IL-5) = experiment: Th1/Th2 cytokine profiling assay: IL-5; assay type: cell-based, Balb/c mice; conditions: 10 micrograms per ml; Ovalbumin-restimulated spleen cells, 72 hours
Description: as §1

Interleukin-2 (IL-2) = experiment: Th1/Th2 cytokine profiling assay: IL-2; assay type: cell-based, Balb/c mice; conditions: 10 micrograms per ml; Ovalbumin-restimulated spleen cells, 72 hours
Description: as §1

[3] = tested on: Primary Human endothelial cells (HUVEC); experiment: Endothelial cell migration assay; assay type: cell-based; conditions: 10 micrograms per ml, 22 hours
Description: Thereafter, designated concentration of testing peptides-10 micrograms per ml-was added in duplicate wells.

Row | Compound | antiviral activity of positive control compounds (HIV-1IIIB) | antiviral activity of positive control compound (HCMV strain AD169; positive control, HCMV AD169) | inhibition of the tube formation of human endothelial cells (HUVEC) [%] | decrease of the production of IL-4 in murine spleen cells (Interleukin-4 (IL-4)) | inhibition of HCMV plaque formation as compared to the virus control experiment (HCMV strain AD169) | change of the production of IFN-gamma in murine spleen cells (Interferon-γ (IFN-γ)) | inhibition of HBV replication as compared to the virus control infection [1] | change of the production of TNF-alpha in murine spleen cells [2] | decrease of the production of IL-5 in murine spleen cells (Interleukin-5 (IL-5)) | decrease of the production of IL-2 in murine spleen cells (Interleukin-2 (IL-2)) | inhibition of the migration of human endothelial cells [3] [%]
1 | Cc1cn([C@H]2C[C@H](N=[N+]=[N-])[C@@H](CO)O2)c(=O)[nH]c1=O [AZT] | expected levels of antiviral activity | – | – | – | – | – | – | – | – | – | –
2 | Nc1nc(O)c2ncn(COC(CO)CO)c2n1 [Ganciclovir, reference compound] | – | expected levels of antiviral activity | – | – | – | – | – | – | – | – | –
3 | CC(C)(C)NC(=O)[C@@H]1CN(Cc2cccnc2)CCN1C[C@@H](O)C[C@@H](Cc1ccccc1)C(=O)N[C@H]1c2ccccc2C[C@H]1O [indinavir] | expected levels of antiviral activity | – | – | – | – | – | – | – | – | – | –
4 | Cys-Tyr-Cys-Arg-Ile-Pro-Ala-Cys-Ile-Ala-Gly-Glu-Arg-Arg-Tyr-Gly-Thr-Cys-Ile-Tyr-Gln-Gly-Arg-Leu-Trp-Ala-Phe-Cys-Cys-OH (CYCRIPACIAGERRYGTCIYQGRLWAFCC-OH; cysteine pairing not given here) [Peptide 1] | – | – | 21 | 49.4% | did not inhibit | did not significantly change | did not inhibit | did not significantly change | 38.4% | 100% | 17
5 | Ser-Glu-Ile-Trp-Arg-Asp-Ile-Asp-Phe-OH (SEIWRDIDF-OH) [Peptide 2] | – | – | 19 | did not significantly change | did not inhibit | did not significantly change | 21.6% | did not significantly change | did not significantly change | did not significantly change | 18
